Test results taken from patent publication US20230085307A1, “PYRIDAZINONE COMPOUND AND HERBICIDE” (NISSAN CHEMICAL CORPORATION, priority 2019, published 2023).

Tests used:
Japanese bulrush [1] = test: Test Example 2: herbicidal activity, application during weed generation under submerged conditions (Table 17, symbol B); format: in vivo, Japanese bulrush (Schoenoplectus juncoides); conditions: AAH 320 g/ha; application during weed generation, submerged conditions
Protocol: (§1) [Test Example 2] Herbicidal Activity Test by Application during Weed Generation under Submerged Conditions After alluvial soil was placed into 1/10000 are of Wagner pot, water was poured and mixed to form a submerged condition having a water depth of 4 cm. Seeds of late watergrass, Japanese bulrush, and oval-leafed pondweed were sowed in a mixed manner in the aforementioned pot, and the pot was placed in a greenhouse at 25° C. to 30° C. for growth of the plants. When late watergrass, Japanese bulrush, and oval-leafed pondweed were grown to one leaf stage to two leaf stage, the emulsion agent of the compound of the present invention prepared according to Formulation Example 2 was diluted with water so as to achieve a predetermined herbicide amount, and the diluted emulsion agent was applied to the surface of the water. Three weeks after the herbicide application, the effect of the herbicide on each plant was evaluated according to the criteria of Test Example 1.

rice flat sedge = test: Test Example 3: herbicidal effect by foliage application, Wagner pot (Table 18, symbol E); format: in vivo, rice flat sedge (Cyperus iria); conditions: 320 g/ha
Outline: (§2)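 Plants were sown in alluvial soil held under 0.1–0.5 cm standing water and grown 14 days in a greenhouse at 25–30 °C. An emulsifiable formulation, water-diluted to the set dose, was then sprayed onto the foliage, and effects were scored three weeks later using previously defined criteria.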

oval-leafed pondweed [2] = test: Test Example 2: herbicidal activity, application during weed generation under submerged conditions (Table 17, symbol C); format: in vivo, oval-leafed pondweed (Monochoria vaginalis); conditions: AAH 320 g/ha; application during weed generation, submerged conditions
Protocol: as §1

late watergrass [3] = test: Test Example 2: herbicidal activity, application during weed generation under submerged conditions (Table 17, symbol A); format: in vivo, late watergrass (Echinochloa oryzicola); conditions: AAH 320 g/ha; application during weed generation, submerged conditions
Protocol: as §1

Chinese sprangletop = test: Test Example 3: herbicidal effect by foliage application, Wagner pot (Table 18, symbol D); format: in vivo, chinese sprangletop (Leptochloa chinensis); conditions: 320 g/ha
Outline: as §2

barnyard grass [4] = test: Test Example 3: herbicidal effect by foliage application, Wagner pot (Table 18, symbol H); format: in vivo, barnyard grass (Echinochloa crus-galli); conditions: 320 g/ha
Outline: as §2

Italian ryegrass [5] = test: Test Example 5: herbicidal effect by foliage application, plastic box (Table 20, symbol K); format: in vivo, Italian ryegrass (Lolium multiflorum); conditions: foliage application, 320 g/ha, 3 weeks after application
Outline: (§3)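 Plants were sown into sterilized diluvial soil under about 1.5 cm cover and kept in a greenhouse at 25° C. to 30° C. Fourteen days on, foliage received an even spray of the diluted emulsion. Herbicidal or crop effect was judged three weeks afterwards.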

wild oat [6] = test: Test Example 4: herbicidal effect by soil treatment (Table 19, symbol I); format: in vivo, wild oat (Avena fatua); conditions: AAH 320 g/ha
Outline: (§4)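 Pre-emergence style soil spray: seeds under ~1.5 cm sterilized diluvial soil received a uniform coat of emulsion diluted to the predetermined herbicide amount. Greenhouse 25–30° C; readout at week three on previously defined criteria.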

late watergrass [7] = test: Test Example 1: herbicidal activity, application before weed generation under submerged conditions (Table 16, symbol A); format: in vivo, late watergrass (Echinochloa oryzicola); conditions: 320 g/ha applied herbicide
Outline: (§5)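 Alluvial soil was flooded to 4 cm depth, weed seeds were sown mixed and 2.5-leaf rice seedlings were transplanted. On sowing day, the compound's emulsion, diluted in water to a set dose, was applied to the water surface. Plants grew at 25–30 °C and were scored 0–5 after three weeks.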

wild oat [8] = test: Test Example 5: herbicidal effect by foliage application, plastic box (Table 20, symbol I); format: in vivo, wild oat (Avena fatua); conditions: foliage application, 320 g/ha, 3 weeks after application
Outline: as §3

blackgrass [9] = test: Test Example 4: herbicidal effect by soil treatment (Table 19, symbol J); format: in vivo, blackgrass (Alopecurus myosuroides); conditions: AAH 320 g/ha
Outline: as §4

lambsquarters [10] = test: Test Example 4: herbicidal effect by soil treatment (Table 19, symbol O); format: in vivo, lambsquarters (Chenopodium album); conditions: AAH 320 g/ha
Outline: as §4

lambsquarters [11] = test: Test Example 5: herbicidal effect by foliage application, plastic box (Table 20, symbol O); format: in vivo, lambsquarters (Chenopodium album); conditions: foliage application, 320 g/ha, 3 weeks after application
Outline: as §3

oval-leafed pondweed [12] = test: Test Example 1: herbicidal activity, application before weed generation under submerged conditions (Table 16, symbol C); format: in vivo, oval-leafed pondweed (Monochoria vaginalis); conditions: 320 g/ha applied herbicide
Outline: as §5

green foxtail [13] = test: Test Example 4: herbicidal effect by soil treatment (Table 19, symbol G); format: in vivo, green foxtail (Setaria viridis); conditions: AAH 320 g/ha
Outline: as §4

Japanese bulrush [14] = test: Test Example 1: herbicidal activity, application before weed generation under submerged conditions (Table 16, symbol B); format: in vivo, Japanese bulrush (Schoenoplectus juncoides); conditions: 320 g/ha applied herbicide
Outline: as §5

southern crabgrass [15] = test: Test Example 5: herbicidal effect by foliage application, plastic box (Table 20, symbol F); format: in vivo, southern crabgrass (Digitaria ciliaris); conditions: foliage application, 320 g/ha, 3 weeks after application
Outline: as §3

redroot pigweed = test: Test Example 4: herbicidal effect by soil treatment (Table 19, symbol N); format: in vivo, redroot pigweed (Amaranthus retroflexus); conditions: AAH 320 g/ha
Outline: as §4

green foxtail [16] = test: Test Example 5: herbicidal effect by foliage application, plastic box (Table 20, symbol G); format: in vivo, green foxtail (Setaria viridis); conditions: foliage application, 320 g/ha, 3 weeks after application
Outline: as §3

persian speedwell [17] = test: Test Example 5: herbicidal effect by foliage application, plastic box (Table 20, symbol R); format: in vivo, Persian speedwell (Veronica persica); conditions: foliage application, 320 g/ha, 3 weeks after application
Outline: as §3

persian speedwell [18] = test: Test Example 4: herbicidal effect by soil treatment (Table 19, symbol R); format: in vivo, Persian speedwell (Veronica persica); conditions: AAH 320 g/ha
Outline: as §4

velvetleaf [19] = test: Test Example 4: herbicidal effect by soil treatment (Table 19, symbol M); format: in vivo, velvetleaf (Abutilon theophrasti); conditions: AAH 320 g/ha
Outline: as §4

southern crabgrass [20] = test: Test Example 4: herbicidal effect by soil treatment (Table 19, symbol F); format: in vivo, southern crabgrass (Digitaria ciliaris); conditions: AAH 320 g/ha
Outline: as §4

chickweed = test: Test Example 4: herbicidal effect by soil treatment (Table 19, symbol P); format: in vivo, common chickweed (Stellaria media); conditions: AAH 320 g/ha
Outline: as §4

Italian ryegrass [21] = test: Test Example 4: herbicidal effect by soil treatment (Table 19, symbol K); format: in vivo, Italian ryegrass (Lolium multiflorum); conditions: AAH 320 g/ha
Outline: as §4

barnyard grass [22] = test: Test Example 5: herbicidal effect by foliage application, plastic box (Table 20, symbol H); format: in vivo, barnyard grass (Echinochloa crus-galli); conditions: foliage application, 320 g/ha, 3 weeks after application
Outline: as §3

velvetleaf [23] = test: Test Example 5: herbicidal effect by foliage application, plastic box (Table 20, symbol M); format: in vivo, velvetleaf (Abutilon theophrasti); conditions: foliage application, 320 g/ha, 3 weeks after application
Outline: as §3

blackgrass [24] = test: Test Example 5: herbicidal effect by foliage application, plastic box (Table 20, symbol J); format: in vivo, blackgrass (Alopecurus myosuroides); conditions: foliage application, 320 g/ha, 3 weeks after application
Outline: as §3

barnyard grass [25] = test: Test Example 4: herbicidal effect by soil treatment (Table 19, symbol H); format: in vivo, barnyard grass (Echinochloa crus-galli); conditions: AAH 320 g/ha
Outline: as §4

With `COC(=O)COc1ccc(-c2sc3ccccc3c2-c2c(O)c(C)nn(C)c2=O)cc1` [1-232] the “herbicidal effect rating, B: Japanese bulrush” value (Japanese bulrush [1]) was 0 (Herbicidal rate of 5% or less (almost no effect)), the “herbicidal effect on E (rice flat sedge), rating 0-5” value (rice flat sedge) was 3 (Herbicidal rate of 40% or more and less than 70%) and the “herbicidal effect rating, C: oval-leafed pondweed” value (oval-leafed pondweed [2]) was 0 (Herbicidal rate of 5% or less (almost no effect)). The “herbicidal effect rating, A: late watergrass” value (late watergrass [3]) was 3 (Herbicidal rate of 40% or more and less than 70%), the “herbicidal effect on D (Chinese sprangletop), rating 0-5” value (Chinese sprangletop) was 3 (Herbicidal rate of 40% or more and less than 70%) and the “herbicidal effect on H (barnyard grass), rating 0-5” value (barnyard grass [4]) was 3 (Herbicidal rate of 40% or more and less than 70%).
For `C=CCOCc1ccc(-c2sc3ccccc3c2-c2c(O)c(C)nn(C)c2=O)cc1` [1-241], the “effect on Italian ryegrass (K)” value (Italian ryegrass [5]) was 5 (Herbicidal rate of 90% or more (almost completely withered)), the “I: wild oat, herbicidal effect rating” value (wild oat [6]) was 0 (Herbicidal rate of 5% or less (almost no effect)) and the “Herbicidal effect on A: late watergrass (grade 0-5)” value (late watergrass [7]) was 0 (Herbicidal rate of 5% or less (almost no effect)). For the same compound, the “effect on wild oat (I)” value (wild oat [8]) was 0 (Herbicidal rate of 5% or less (almost no effect)), the “herbicidal effect rating, B: Japanese bulrush” value (Japanese bulrush [1]) was 3 (Herbicidal rate of 40% or more and less than 70%) and the “J: blackgrass, herbicidal effect rating” value (blackgrass [9]) was 2 (Herbicidal rate of 20% or more and less than 40%). For the same compound, the “herbicidal effect on E (rice flat sedge), rating 0-5” value (rice flat sedge) was 4 (Herbicidal rate of 70% or more and less than 90%), the “O: lambsquarters, herbicidal effect rating” value (lambsquarters [10]) was 4 (Herbicidal rate of 70% or more and less than 90%) and the “effect on lambsquarters (O)” value (lambsquarters [11]) was 4 (Herbicidal rate of 70% or more and less than 90%). The “Herbicidal effect on C: oval-leafed pondweed (grade 0-5)” value (oval-leafed pondweed [12]) was 2 (Herbicidal rate of 20% or more and less than 40%), the “G: green foxtail, herbicidal effect rating” value (green foxtail [13]) was 3 (Herbicidal rate of 40% or more and less than 70%) and the “Herbicidal effect on B: Japanese bulrush (grade 0-5)” value (Japanese bulrush [14]) was 3 (Herbicidal rate of 40% or more and less than 70%). For the same compound, the “herbicidal effect rating, A: late watergrass” value (late watergrass [3]) was 3 (Herbicidal rate of 40% or more and less than 70%), the “effect on southern crabgrass (F)” value (southern crabgrass [15]) was 2 (Herbicidal rate of 20% or more and less than 40%) and the “N: redroot pigweed, herbicidal effect rating” value (redroot pigweed) was 5 (Herbicidal rate of 90% or more (almost completely withered)). The “herbicidal effect on D (Chinese sprangletop), rating 0-5” value (Chinese sprangletop) was 3 (Herbicidal rate of 40% or more and less than 70%), the “effect on green foxtail (G)” value (green foxtail [16]) was 5 (Herbicidal rate of 90% or more (almost completely withered)) and the “herbicidal effect on H (barnyard grass), rating 0-5” value (barnyard grass [4]) was 5 (Herbicidal rate of 90% or more (almost completely withered)). For the same compound, the “effect on persian speedwell (R)” value (persian speedwell [17]) was 5 (Herbicidal rate of 90% or more (almost completely withered)), the “R: persian speedwell, herbicidal effect rating” value (persian speedwell [18]) was 5 (Herbicidal rate of 90% or more (almost completely withered)) and the “M: velvetleaf, herbicidal effect rating” value (velvetleaf [19]) was 0 (Herbicidal rate of 5% or less (almost no effect)). For the same compound, the “F: southern crabgrass, herbicidal effect rating” value (southern crabgrass [20]) was 1 (Herbicidal rate of 5% or more and less than 20%), the “P: chickweed, herbicidal effect rating” value (chickweed) was 3 (Herbicidal rate of 40% or more and less than 70%) and the “K: Italian ryegrass, herbicidal effect rating” value (Italian ryegrass [21]) was 3 (Herbicidal rate of 40% or more and less than 70%). The “effect on barnyard grass (H)” value (barnyard grass [22]) was 4 (Herbicidal rate of 70% or more and less than 90%), the “effect on velvetleaf (M)” value (velvetleaf [23]) was 5 (Herbicidal rate of 90% or more (almost completely withered)) and the “effect on blackgrass (J)” value (blackgrass [24]) was 3 (Herbicidal rate of 40% or more and less than 70%). For the same compound, the “H: barnyard grass, herbicidal effect rating” value (barnyard grass [25]) was 3 (Herbicidal rate of 40% or more and less than 70%).
